Key:
Assay in all cases: relative viability (nuclei count vs DMSO), 5 days (fraction); higher = more cells survive
[1] = compound: C1CN(CCN1)C2=CC=C(C=C2)C3=CN4C(=C(C=N4)C5=CC=NC6=CC=CC=C56)N=C3 [DM3189]
Summary of the method: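 A plate was accepted only when its control CV was below 25% and the cells had doubled at least once. Viability is defined from nuclear counts as treated wells divided by vehicle wells, with the median taken across plates. That median covers lung cancer cell lines grown in 1536-well plates, dosed by pinning at five √10-spaced library-drug concentrations, and counted in MetaXpress from 4× Hoechst images after 5 days.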

[2] = compound: C1CN(CCN1)C2=CC=C(C=C2)C3=CN4C(=C(C=N4)C5=CC=NC6=CC=CC=C56)N=C3 [DM3189] + CCNC(=O)c1noc(-c2cc(C(C)C)c(O)cc2O)c1-c1ccc(CN2CCOCC2)cc1 [Luminespib] (partner 0.01 µM)
Summary of the method: (§1)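 Nuclei were stained with Hoechst during a one-step fixation (final 0.05% Triton X-100, 1% formaldehyde, 1 ug/ml Hoechst) carried out 5 days after dosing, then counted on 4× images. The cells, lung cancer lines in 1536-well plates, had been dosed by pin tool the day after seeding with one drug alone or a fixed anchor-drug dose plus five library-drug doses (not always all listed) in √10 steps. Relative viability is the nuclei count in treated wells divided by that in vehicle wells, and each value is the median of duplicate plates.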

[3] = compound: C1CN(CCN1)C2=CC=C(C=C2)C3=CN4C(=C(C=N4)C5=CC=NC6=CC=CC=C56)N=C3 [DM3189] + COc1cc2c(Oc3ccc(NC(=O)C4(C(=O)Nc5ccc(F)cc5)CC4)cc3F)ccnc2cc1OCCCN1CCOCC1 [Foretinib] (partner 0.25 µM)
Summary of the method: as §1

[4] = compound: C1CN(CCN1)C2=CC=C(C=C2)C3=CN4C(=C(C=N4)C5=CC=NC6=CC=CC=C56)N=C3 [DM3189] + COc1cccc2cc(-c3nc([C@H]4CC[C@H](C(=O)O)CC4)n4ncnc(N)c34)[nH]c12 [OSI-027] (partner 0.5 µM)
Summary of the method: as §1

[5] = compound: C1CN(CCN1)C2=CC=C(C=C2)C3=CN4C(=C(C=N4)C5=CC=NC6=CC=CC=C56)N=C3 [DM3189] + Cc1cc(Nc2cc(N3CCN(C)CC3)nc(Sc3ccc(NC(=O)C4CC4)cc3)n2)n[nH]1 [Tozasertib] (partner 0.1 µM)
Summary of the method: as §1

[6] = compound: C1CN(CCN1)C2=CC=C(C=C2)C3=CN4C(=C(C=N4)C5=CC=NC6=CC=CC=C56)N=C3 [DM3189] + Cc1nc(Nc2ncc(C(=O)Nc3c(C)cccc3Cl)s2)cc(N2CCN(CCO)CC2)n1 [Dasatinib] (partner 0.075 µM)
Summary of the method: as §1

[7] = compound: C1CN(CCN1)C2=CC=C(C=C2)C3=CN4C(=C(C=N4)C5=CC=NC6=CC=CC=C56)N=C3 [DM3189] + N=C(N)NC(=N)NCCc1ccccc1 [Phenformin] (partner 250 µM)
Summary of the method: as §1

[8] = compound: C1CN(CCN1)C2=CC=C(C=C2)C3=CN4C(=C(C=N4)C5=CC=NC6=CC=CC=C56)N=C3 [DM3189] + CC(=O)Nc1cccc(-n2c(=O)n(C3CC3)c(=O)c3c(Nc4ccc(I)cc4F)n(C)c(=O)c(C)c32)c1 [Trametinib] (partner 0.02 µM)
Summary of the method: as §1

[9] = compound: C1CN(CCN1)C2=CC=C(C=C2)C3=CN4C(=C(C=N4)C5=CC=NC6=CC=CC=C56)N=C3 [DM3189] + CC(=O)c1c(C)c2cnc(Nc3ccc(N4CCNCC4)cn3)nc2n(C2CCCC2)c1=O [Palbociclib] (partner 0.5 µM)
Summary of the method: as §1

[10] = compound: C1CN(CCN1)C2=CC=C(C=C2)C3=CN4C(=C(C=N4)C5=CC=NC6=CC=CC=C56)N=C3 [DM3189] + NC(=O)Nc1cc(-c2cccc(F)c2)sc1C(=O)N[C@H]1CCCNC1 [AZD7762] (partner 0.2 µM)
Summary of the method: as §1

[11] = compound: C1CN(CCN1)C2=CC=C(C=C2)C3=CN4C(=C(C=N4)C5=CC=NC6=CC=CC=C56)N=C3 [DM3189] + Nc1nc2[nH]cc(CCc3ccc(C(=O)N[C@@H](CCC(=O)O)C(=O)O)cc3)c2c(=O)[nH]1 [Pemetrexed] (partner 0.2 µM)
Summary of the method: as §1

[12] = compound: C1CN(CCN1)C2=CC=C(C=C2)C3=CN4C(=C(C=N4)C5=CC=NC6=CC=CC=C56)N=C3 [DM3189] + Nc1ncn([C@H]2C[C@H](O)[C@@H](CO)O2)c(=O)n1 [Decitabine] (partner 2 µM)
Summary of the method: as §1

[13] = compound: C1CN(CCN1)C2=CC=C(C=C2)C3=CN4C(=C(C=N4)C5=CC=NC6=CC=CC=C56)N=C3 [DM3189] + O=C(CCCCCCC(=O)Nc1ccccc1)NO [Vorinostat] (partner 1 µM)
Summary of the method: as §1

[14] = compound: C1CN(CCN1)C2=CC=C(C=C2)C3=CN4C(=C(C=N4)C5=CC=NC6=CC=CC=C56)N=C3 [DM3189] + O=C(c1cc(Cc2n[nH]c(=O)c3ccccc23)ccc1F)N1CCN(C(=O)C2CC2)CC1 [Olaparib] (partner 8 µM)
Summary of the method: as §1

Cell Line NCI-H1623 has a relative viability ([1]; 0.08 µM) of 1.05, a relative viability ([1]; 0.253 µM) of 0.874 and a relative viability ([1]; 0.8 µM) of 0.92. It also gave a relative viability ([1]; 2.53 µM) of 0.979, a relative viability ([2]; first compound 0.08 µM) of 0.482 and a relative viability ([2]; first compound 0.253 µM) of 0.494. It also gave a relative viability ([2]; first compound 0.8 µM) of 0.313, a relative viability ([2]; first compound 2.53 µM) of 0.537 and a relative viability ([3]; first compound 0.08 µM) of 0.939. For the same cell line, the relative viability ([3]; first compound 0.253 µM) was 0.901, the relative viability ([3]; first compound 0.8 µM) was 0.83 and the relative viability ([3]; first compound 2.53 µM) was 0.818. It also gave a relative viability ([4]; first compound 0.08 µM) of 0.517, a relative viability ([4]; first compound 0.253 µM) of 0.43 and a relative viability ([4]; first compound 0.8 µM) of 0.34. For the same cell line, the relative viability ([4]; first compound 2.53 µM) was 0.369, the relative viability ([5]; first compound 0.08 µM) was 0.406 and the relative viability ([5]; first compound 0.253 µM) was 0.426. For the same cell line, the relative viability ([5]; first compound 0.8 µM) was 0.408, the relative viability ([5]; first compound 2.53 µM) was 0.377 and the relative viability ([6]; first compound 0.08 µM) was 0.588. The relative viability ([6]; first compound 0.253 µM) was 0.611, the relative viability ([6]; first compound 0.8 µM) was 0.456 and the relative viability ([6]; first compound 2.53 µM) was 0.527. The relative viability ([7]; first compound 0.08 µM) was 0.61, the relative viability ([7]; first compound 0.253 µM) was 0.528 and the relative viability ([7]; first compound 0.8 µM) was 0.46. For the same cell line, the relative viability ([7]; first compound 2.53 µM) was 0.545.
In the case of NCI-H1648, the relative viability ([1]; 0.08 µM) is reported as 0.798, the relative viability ([1]; 0.253 µM) is reported as 0.947 and the relative viability ([1]; 0.8 µM) is reported as 0.962. It also gave a relative viability ([1]; 2.53 µM) of 0.661, a relative viability ([8]; first compound 0.08 µM) of 0.434 and a relative viability ([8]; first compound 0.253 µM) of 0.51. The relative viability ([8]; first compound 0.8 µM) was 0.61, the relative viability ([8]; first compound 2.53 µM) was 0.671 and the relative viability ([9]; first compound 0.08 µM) was 0.274. It also gave a relative viability ([9]; first compound 0.253 µM) of 0.226, a relative viability ([9]; first compound 0.8 µM) of 0.271 and a relative viability ([9]; first compound 2.53 µM) of 0.364. It also gave a relative viability ([4]; first compound 0.253 µM) of 0.272, a relative viability ([4]; first compound 0.8 µM) of 0.227 and a relative viability ([4]; first compound 2.53 µM) of 0.28. For the same cell line, the relative viability ([5]; first compound 0.253 µM) was 0.565, the relative viability ([5]; first compound 0.8 µM) was 0.39 and the relative viability ([5]; first compound 2.53 µM) was 0.464. The relative viability ([10]; first compound 0.08 µM) was 0.681, the relative viability ([10]; first compound 0.253 µM) was 0.592 and the relative viability ([10]; first compound 0.8 µM) was 0.562. For the same cell line, the relative viability ([10]; first compound 2.53 µM) was 0.576, the relative viability ([11]; first compound 0.08 µM) was 0.893 and the relative viability ([11]; first compound 0.253 µM) was 0.615. For the same cell line, the relative viability ([11]; first compound 0.8 µM) was 0.596, the relative viability ([11]; first compound 2.53 µM) was 0.577 and the relative viability ([12]; first compound 0.08 µM) was 0.631. The relative viability ([12]; first compound 0.253 µM) was 0.53, the relative viability ([12]; first compound 0.8 µM) was 0.462 and the relative viability ([12]; first compound 2.53 µM) was 0.438. It also gave a relative viability ([13]; first compound 0.08 µM) of 0.453, a relative viability ([13]; first compound 0.253 µM) of 0.637 and a relative viability ([13]; first compound 0.8 µM) of 0.421. For the same cell line, the relative viability ([13]; first compound 2.53 µM) was 0.391, the relative viability ([14]; first compound 0.08 µM) was 1.16 and the relative viability ([14]; first compound 0.253 µM) was 0.881. It also gave a relative viability ([14]; first compound 0.8 µM) of 0.749 and a relative viability ([14]; first compound 2.53 µM) of 0.862.
